Patent US11897859B1, “Coumarin compounds as antibacterial agents” (KING FAISAL UNIVERSITY, priority 2023, dated 2024)
Converted amounts (≈) assume the structure as drawn. Where two headings read alike, the source gives them in different places.

Assays:
[1] = system: Staphylococcus epidermidis; assay: In vitro antibacterial activity (CLSI M07-A10 dilution), MIC; assay type: cell-based
[2] = molecular target: T1, DNA gyrase from E. coli (Escherichia coli, UniProt P0AES4+P0AES6); assay: Inhibitory activity on E. coli DNA gyrase (Inspiralis supercoiling assay); assay type: biochemical
T1 construct: purchased Inspiralis
Protocol: Inhibitory potencies were investigated utilizing the Inspiralis assay on streptavidin-coated 96-well microtiter plates. First, the plates were rehydrated with buffer (20 mM Tris-HCl with pH 7.6, 0.01% w/v BSA, 0.05% v/v Tween 20, 137 mM NaCl) and the biotinylated oligonucleotide was then immobilized. After washing off the unbound oligonucleotide, the enzyme test was performed. […] Reaction solutions were incubated at 37° C. for 30 min. After that, the TF buffer (50 mM NaOAc with pH 5.0, 50 mM NaCl and 50 mM MgCl2) was added to terminate the enzymatic reaction. After additional incubation for 30 min at rt, during which biotinoligonucleotide-plasmid triplex was formed, the unbound plasmid was washed off using TF buffer and SybrGOLD in T10 buffer (10 mM Tris HCl with pH 8.0 and 1 mM EDTA) was added. The fluorescence was measured with a microplate reader (BioTek Synergy H4, excitation: 485 nm, emission: 535 nm). […] GraphPad Prism software was used to calculate the IC50 values. The result is given as the average value of three independent measurements.

[3] = system: Mycobacterium tuberculosis H37Rv strain; assay: Anti-tubercular alamar blue microplate MIC assay; assay type: cell-based; conditions: 168 h, M. tuberculosis H37Rv, 7 days at 37° C., read-out: anti-mycobacterial activity (MIC)
[4] = system: Klebsiella pneumonia MTCC 618; assay: In vitro antibacterial activity (CLSI M07-A10 dilution), MIC; assay type: cell-based; conditions: Klebsiella pneumoniae, MTCC618
[5] = system: Enterococcus faecium ATCC 51559 (VRE resistant); assay: as above; assay type: cell-based
[6] = system: Staphylococcus aureus ATCC BAA-1556 (MERSA resistant); assay: as above; assay type: cell-based; conditions: ATCCBAA1556
[7] = system: Escherichia coli MTCC 443; assay: as above; assay type: cell-based; conditions: MTCC443
[8] = system: Enterococcus faecium ATCC 35667; assay: as above; assay type: cell-based; conditions: ATCC35667
[9] = system: Pseudomonas aeruginosa MTCC 741; assay: as above; assay type: cell-based; conditions: MTCC741
[10] = system: Bacillus subtilis MTCC 441; assay: as above; assay type: cell-based; conditions: MTCC441
[11] = system: Staphylococcus aureus ATCC 29213; assay: as above; assay type: cell-based; conditions: ATCC29213

T1 sequence (P0AES4 whole entry, one chain of several): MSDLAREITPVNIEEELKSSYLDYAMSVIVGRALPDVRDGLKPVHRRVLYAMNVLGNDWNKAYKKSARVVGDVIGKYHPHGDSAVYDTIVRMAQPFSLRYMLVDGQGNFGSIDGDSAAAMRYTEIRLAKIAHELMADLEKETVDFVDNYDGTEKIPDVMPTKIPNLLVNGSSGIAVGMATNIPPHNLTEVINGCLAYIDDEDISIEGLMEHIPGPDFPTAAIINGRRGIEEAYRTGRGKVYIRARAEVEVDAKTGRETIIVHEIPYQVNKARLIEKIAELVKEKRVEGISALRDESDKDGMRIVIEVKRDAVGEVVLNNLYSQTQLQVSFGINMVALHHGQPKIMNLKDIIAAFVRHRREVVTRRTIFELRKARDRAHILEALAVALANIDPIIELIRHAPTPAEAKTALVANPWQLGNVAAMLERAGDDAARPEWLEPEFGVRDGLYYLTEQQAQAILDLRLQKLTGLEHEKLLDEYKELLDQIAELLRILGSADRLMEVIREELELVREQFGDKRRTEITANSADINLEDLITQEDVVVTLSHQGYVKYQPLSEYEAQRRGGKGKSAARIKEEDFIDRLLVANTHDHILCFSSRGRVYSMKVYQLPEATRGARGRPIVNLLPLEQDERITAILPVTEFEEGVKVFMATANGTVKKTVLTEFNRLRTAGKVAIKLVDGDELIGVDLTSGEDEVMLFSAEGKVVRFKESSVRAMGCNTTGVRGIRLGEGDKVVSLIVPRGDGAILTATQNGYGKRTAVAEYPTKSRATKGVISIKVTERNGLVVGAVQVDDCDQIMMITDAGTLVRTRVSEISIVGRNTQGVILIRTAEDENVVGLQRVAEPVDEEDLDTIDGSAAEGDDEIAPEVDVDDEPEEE

| SMILES | MIC [1] [mg/L] | IC50 [2] [µM] | MIC [3] [mg/L] | MIC ([4]; Klebsiella pneumonia MTCC 618, read-out: MIC) [mg/L] | MIC [5] [mg/L] | MIC [6] [mg/L] | MIC [7] [mg/L] | MIC [8] [mg/L] | MIC [9] [mg/L] | MIC [10] [mg/L] | MIC [11] [mg/L] | MIC [4] [mg/L] |
| --- | --- | --- | --- | --- | --- | --- | --- | --- | --- | --- | --- | --- |
| CCC(=O)Nc1ccc2cc(-c3cc(C(=O)O)ccc3CN(C)C3CCCCC3)c(=O)oc2c1 [Compound 12, 4-((cyclohexyl(methyl)amino)methyl)-3-(2-oxo-7-propionamido-2H-chromen-3-yl)benzoic acid] | 1 (≈ 2.16 µM) | 0.078 | 8 (≈ 17.3 µM) | 1 (≈ 2.16 µM) | 1 (≈ 2.16 µM) | 4 (≈ 8.65 µM) | 4 (≈ 8.65 µM) | 0.75 (≈ 1.62 µM) | 1 (≈ 2.16 µM) | 0.75 (≈ 1.62 µM) | 2 (≈ 4.32 µM) | – |
| CN[C@H](CC(C)C)C(=O)N[C@H]1C(=O)N[C@@H](CC(N)=O)C(=O)N[C@H]2C(=O)N[C@H]3C(=O)N[C@H](C(=O)N[C@H](C(=O)O)c4cc(O)cc(O)c4-c4cc3ccc4O)[C@H](O)c3ccc(c(Cl)c3)Oc3cc2cc(c3O[C@@H]2O[C@H](CO)[C@@H](O)[C@H](O)[C@H]2O[C@H]2C[C@](C)(N)[C@H](O)[C@H](C)O2)Oc2ccc(cc2Cl)[C@H]1O [Vancomycin, reference compound] | – | – | – | – | – | – | – | – | – | – | – | > 128 |
